Experimental data: the supplement of paper PMC6965134
± gives the standard deviation of the averaged measurements. Values belong to the compound of their own block, whether it stands above or below them.

Experiment: TIMS collisional cross section (CCS, N2) of the lipid ion; higher = larger ion cross section
Conditions: ionization mode: positive, one isomer drawn

Compound: CCCCCCCC/C=C\CCCCCCCCCC(=O)O[C@H](COC(=O)CCCCCCCCCCCCCCCCC)COP(=O)(O)OCCN [PE 18:0_20:1] (ion (formula + adduct): [C43H84NO8P+H] 1+)
TIMS collisional cross section (sample type: Liver): 289.3 Å²

Compound: CCCCC/C=C\C/C=C\C/C=C\C/C=C\CCCC(=O)O[C@H](COC(=O)CCCCCCCCCCCCCCCCC)COP(=O)(O)OCCN [PE 18:0_20:4@] (ion (formula + adduct): [C43H78NO8P+H] 1+)
TIMS collisional cross section (sample type: HeLa): 284.1 Å² | TIMS collisional cross section (sample type: Liver): 283.9 ± 0.37 Å²

Compound: CCCCC/C=C\C/C=C\C/C=C\C/C=C\CCCC(=O)O[C@H](COC(=O)CCCCCCCCCCCCCCCCC)COP(=O)(O)OCCN [PE 18:0_20:4] (ion (formula + adduct): [C43H78NO8P+H] 1+)
TIMS collisional cross section (sample type: Liver): 284.15 ± 0.49 Å² | TIMS collisional cross section (sample type: plasma): 283.5 Å²

Compound: CC/C=C\C/C=C\C/C=C\C/C=C\C/C=C\C/C=C\CCC(=O)O[C@H](COC(=O)CCCCCCCCCCCCCCCCC)COP(=O)(O)OCCN [PE 18:0_22:6] (ion (formula + adduct): [C45H78NO8P+H] 1+)
TIMS collisional cross section (sample type: HeLa): 285.5 Å² | TIMS collisional cross section (sample type: Liver): 285.6 Å²

Compound: CCCCCCCC/C=C\CCCCCCCC(=O)OC[C@H](COP(=O)(O)OCCN)OC(=O)CCCCCCCCCCCCCCCC [PE 18:1_17:0@] (ion (formula + adduct): [C40H78NO8P+H] 1+)
TIMS collisional cross section (sample type: HeLa): 279 Å²

Compound: CCCCC/C=C\C/C=C\CCCCCCCC(=O)O[C@H](COC(=O)CCCCCCC/C=C\CCCCCCCC)COP(=O)(O)OCCN [PE 18:1_18:2@] (ion (formula + adduct): [C41H76NO8P+H] 1+)
TIMS collisional cross section (sample type: HeLa): 277.9 Å² | TIMS collisional cross section (sample type: plasma): 275.8 Å²

Compound: CCCCC/C=C\C/C=C\CCCCCCCC(=O)O[C@H](COC(=O)CCCCCCC/C=C\CCCCCCCC)COP(=O)(O)OCCN [PE 18:1_18:2] (ion (formula + adduct): [C41H76NO8P+H] 1+)
TIMS collisional cross section (sample type: HeLa): 275.7 Å² | TIMS collisional cross section (sample type: Liver): 276.1 Å²

Continued, values first:

TIMS collisional cross section (sample type: HeLa): 286.2 Å²
Compound: CCCCCCCC/C=C\CCCCCCCCCC(=O)O[C@H](COC(=O)CCCCCCC/C=C\CCCCCCCC)COP(=O)(O)OCCN [PE 18:1@_20:1] (ion (formula + adduct): [C43H82NO8P+H] 1+)

TIMS collisional cross section (sample type: Liver): 283.3 Å²
Compound: CCCCC/C=C\C/C=C\CCCCCCCCCC(=O)O[C@H](COC(=O)CCCCCCC/C=C\CCCCCCCC)COP(=O)(O)OCCN [PE 18:1@_20:2] (ion (formula + adduct): [C43H80NO8P+H] 1+)

TIMS collisional cross section (sample type: HeLa): 279.2 ± 0.71 Å²
Compound: CCCCCCCC/C=C/CCCCCCCC(=O)OC[C@H](COP(=O)(O)OCCN)OC(=O)CCCCCCC/C=C/CCCCCCCC [PE 18:1_18:1] (ion (formula + adduct): [C41H78NO8P+H] 1+)

TIMS collisional cross section (sample type: HeLa): 279.7 Å² | TIMS collisional cross section (sample type: plasma): 280.6 Å²
Compound: CCCCCCCC/C=C/CCCCCCCC(=O)OC[C@H](COP(=O)(O)OCCN)OC(=O)CCCCCCC/C=C/CCCCCCCC [PE 18:1_18:1] (ion (formula + adduct): [C41H78NO8P+Na] 1+)

TIMS collisional cross section (sample type: Liver): 290.8 Å²
Compound: CCCCCCCC/C=C\CCCCCCCC(=O)OC[C@H](COP(=O)(O)OCCN(C)C)OC(=O)CCCCCCC/C=C\CCCCCCCC [PE 18:1_18:1] (ion (formula + adduct): [C43H82NO8P+Na] 1+)

TIMS collisional cross section (sample type: HeLa): 276 Å² | TIMS collisional cross section (sample type: Liver): 277.2 Å²
Compound: CCCCC/C=C\C/C=C\CCCCCCCC(=O)O[C@H](COC(=O)CCCCCCC/C=C\CCCCCCCC)COP(=O)(O)OCCN [PE 18:1_18:2] (ion (formula + adduct): [C41H76NO8P+Na] 1+)

TIMS collisional cross section (sample type: Liver): 285.5 Å²
Compound: CCCCCCCC/C=C\CCCCCCCCCC(=O)O[C@H](COC(=O)CCCCCCC/C=C\CCCCCCCC)COP(=O)(O)OCCN [PE 18:1_20:1@] (ion (formula + adduct): [C43H82NO8P+H] 1+)
